Experimental data: US12303509B2, “Compounds for the treatment of BRAF-associated diseases and disorders” (Pfizer Inc., priority 2020, dated 2025)
pIC50: −log10 of the molar value. Counter-ions that a name gives are not always drawn. Like-named read-outs stand apart in the source and are kept apart here.

Tests used:
[1] = biological target: full-length FLAG-tagged B-Raf(V600E) (Homo sapiens (Human), UniProt P15056, V600E); test: BRAF V600E enzyme assay (TR-FRET competitive displacement); assay type: binding
Description: A competitive displacement assay was configured for B-Raf that monitors the amount of a fluorescently-tagged “tracer” bound to B-Raf via TR-FRET from an anti-tag Eu-labeled antibody also bound to B-Raf. For full-length FLAG-tagged B-Raf(V600E), the assay mixtures consisted of 25 mM K^+HEPES, pH 7.4, 10 mM MgCl2, 0.01% Triton X-100, 1 mM DTT, 2% DMSO (from compound), 50 nM Tracer 1710 (ThermoFisher, PR9176A), 0.5 nM Eu anti-FLAG (M2)-cryptate Ab (Cisbio, 61FG2KLB) and 5 nM full-length, N-terminally FLAG-tagged B-Raf(V600E) (Origene Technologies, TP700031. Compounds were typically diluted in DMSO across an 11-point dosing range created using a 3-fold serial dilution protocol at a top dose of 10 μM. The assay was run in 384-well, polystyrene, low-volume, non-treated, white microtiter plates (Costar 4512) in a final volume of 12 μL. Low control wells included 1 μM of a potent B-Raf inhibitor as a control. The assays were incubated at ambient temperature (typically 22° C.) for 60 min and then read on a PerkinElmer EnVision microplate reader using standard TRF settings (λEx=320 nm, λEm=615 & 665 nm). The ratioed counts (665 nm/615 nm) were converted to percent of control (POC) using the following equation:
[formula] • where: • Xmax Average Uninhibited Controls • Xmin Average Background
A 4-parameter logistic model was the fit to the POC data for each compound. From that fit, the IC50 was estimated and is defined as the concentration of compound at which the best-fit curve crosses 50 POC.

[2] = system: A375 cells; test: Cellular phospho-ERK inhibition assay in A375 cells; assay type: cell-based; settings: Homo sapiens, A-375, A375 cells (head prints A357), 2 hours treatment, read-out: A357 cell IC50
Description: (§1) A375 and H1755 cells were obtained from the American Type Culture Collection (ATCC, Rockville, MD). A375 cells were maintained in DMEM growth medium containing 10% FBS. H1755 cells were maintained in RPMI growth medium containing 10% FBS.
(§2) Cells were harvested according to standard protocols, counted and plated onto flat-bottom, 96-well tissue culture plates (Costar #3599) at 2.5×10^4 cells/well for A375 cells and 1.5×10^4 cells/well for H1755 cells in 100 μL/well of growth medium containing 10% FBS. After an overnight incubation at 37° C. with 5% CO2 cells were treated for 2 hours at 37° C., 5% CO2 with compounds prepared as a 9-point, 1:3.33 fold dilution series with final compound concentrations ranging from 66 pM-10 μM and a constant DMSO concentration of 0.25%. Control wells contained either 0.25% DMSO alone (uninhibited control) or 10 μM binimetinib (complete inhibition control). The levels of phosphorylated ERK are determined using an In Cell Western protocol: following compound incubation, growth medium was discarded, and cells were fixed with 0.4% formaldehyde in PBS for 20 minutes at room temperature. Cells were permeabilized with 100% methanol for 10 minutes at room temperature. Plates were washed with PBS containing 0.05% Tween-20 and blocked for 1 hour at room temperature with LI-COR Blocking Buffer (LI-COR Biosciences; Cat #927-40000). Plates were then incubated for 2 hours at room temperature with 50 μL of a 1:400 dilution of anti-phospho-ERK1/2 (Thr202/Tyr204) (Cell Signaling; Cat #9101) and a 1:1000 dilution of anti-GAPDH (Millipore; Cat #MAB374) in LI-COR blocking buffer containing 0.05% Tween-20. Plates were washed with PBS containing […] Tween-20 then incubated at room temperature for 1 hour with 50 μL of a 1:1000 dilution of anti-rabbit AlexaFluor 680 (Life Technologies; Cat #A21109) and a 1:1000 dilution of anti-mouse IRDye 800CW (LI-COR; Cat #926-32210) in LI-COR blocking buffer containing 0.05% Tween-20. Plates were analyzed by reading on an Odyssey CLx infrared scanner. For each well, the phospho-ERK signal was normalized to the GAPDH signal and converted to POC using the following equation:
(§3) [formula] • Where: • Xmax Average Uninhibited Controls • Xmin Average Complete Inhibition Controls IC50 values were then calculated using a 4-parameter fit in XLfit software and are provided in Table A1.

[3] = system: H1755 cells; test: Cellular phospho-ERK inhibition assay in H1755 cells; assay type: cell-based; settings: Homo sapiens, NCI-H1755, 2 hours treatment, read-out: H1755 Cell IC50
Description: as §1, §2, §3

[4] = MDR1 LLC-PK1 and BCRP MDCKII permeability assay: permeability coefficient (Papp); assay type: in vitro ADME
Source text: (§4) Final organic concentration in the assay was 1%.

[5] = biological target: P-gp (MDR1) (Homo sapiens (Human), UniProt P08183); test: MDR1 LLC-PK1 permeability assay: efflux ratio; assay type: in vitro ADME; settings: pig
Source text: as §4

[6] = biological target: BCRP (Homo sapiens (Human), UniProt Q9UNQ0); test: BCRP MDCKII permeability assay: efflux ratio; assay type: in vitro ADME; settings: dog
[7] = averaged IC50, TR-FRET tracer displacement, 60 min

Sequence of P-gp (MDR1) (P08183 whole entry, species assumed): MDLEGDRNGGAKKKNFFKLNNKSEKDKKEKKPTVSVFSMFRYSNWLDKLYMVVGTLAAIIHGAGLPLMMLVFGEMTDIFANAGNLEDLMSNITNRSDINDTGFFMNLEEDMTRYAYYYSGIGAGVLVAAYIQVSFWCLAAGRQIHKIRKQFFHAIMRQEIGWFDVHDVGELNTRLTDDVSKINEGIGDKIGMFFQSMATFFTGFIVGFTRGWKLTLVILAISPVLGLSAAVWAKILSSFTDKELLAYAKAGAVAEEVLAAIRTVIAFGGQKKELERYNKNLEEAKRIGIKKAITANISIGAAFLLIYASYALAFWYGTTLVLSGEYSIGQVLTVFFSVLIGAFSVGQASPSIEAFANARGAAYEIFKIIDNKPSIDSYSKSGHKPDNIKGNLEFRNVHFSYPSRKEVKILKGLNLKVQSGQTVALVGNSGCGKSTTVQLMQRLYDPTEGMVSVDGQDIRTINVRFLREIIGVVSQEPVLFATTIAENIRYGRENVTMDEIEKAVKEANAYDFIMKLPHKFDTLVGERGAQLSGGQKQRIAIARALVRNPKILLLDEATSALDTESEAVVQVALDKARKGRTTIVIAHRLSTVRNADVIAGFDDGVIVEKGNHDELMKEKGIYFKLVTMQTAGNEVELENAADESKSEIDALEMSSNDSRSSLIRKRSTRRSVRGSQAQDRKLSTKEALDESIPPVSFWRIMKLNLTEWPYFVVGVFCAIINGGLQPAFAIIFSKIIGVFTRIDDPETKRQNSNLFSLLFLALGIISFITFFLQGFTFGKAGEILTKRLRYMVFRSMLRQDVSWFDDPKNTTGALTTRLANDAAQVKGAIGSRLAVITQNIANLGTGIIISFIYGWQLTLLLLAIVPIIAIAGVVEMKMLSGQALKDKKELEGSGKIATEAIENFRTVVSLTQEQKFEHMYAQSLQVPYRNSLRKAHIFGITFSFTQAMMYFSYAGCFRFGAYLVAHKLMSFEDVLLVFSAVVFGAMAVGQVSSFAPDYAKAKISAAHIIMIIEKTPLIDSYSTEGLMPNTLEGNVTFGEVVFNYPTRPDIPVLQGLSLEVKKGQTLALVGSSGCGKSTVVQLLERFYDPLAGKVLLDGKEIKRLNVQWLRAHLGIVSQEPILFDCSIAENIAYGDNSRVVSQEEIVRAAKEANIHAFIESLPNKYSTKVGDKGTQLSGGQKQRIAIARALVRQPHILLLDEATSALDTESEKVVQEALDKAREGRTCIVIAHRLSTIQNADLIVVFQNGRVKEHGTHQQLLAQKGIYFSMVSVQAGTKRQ
Sequence of full-length FLAG-tagged B-Raf(V600E) (P15056 whole entry V600E): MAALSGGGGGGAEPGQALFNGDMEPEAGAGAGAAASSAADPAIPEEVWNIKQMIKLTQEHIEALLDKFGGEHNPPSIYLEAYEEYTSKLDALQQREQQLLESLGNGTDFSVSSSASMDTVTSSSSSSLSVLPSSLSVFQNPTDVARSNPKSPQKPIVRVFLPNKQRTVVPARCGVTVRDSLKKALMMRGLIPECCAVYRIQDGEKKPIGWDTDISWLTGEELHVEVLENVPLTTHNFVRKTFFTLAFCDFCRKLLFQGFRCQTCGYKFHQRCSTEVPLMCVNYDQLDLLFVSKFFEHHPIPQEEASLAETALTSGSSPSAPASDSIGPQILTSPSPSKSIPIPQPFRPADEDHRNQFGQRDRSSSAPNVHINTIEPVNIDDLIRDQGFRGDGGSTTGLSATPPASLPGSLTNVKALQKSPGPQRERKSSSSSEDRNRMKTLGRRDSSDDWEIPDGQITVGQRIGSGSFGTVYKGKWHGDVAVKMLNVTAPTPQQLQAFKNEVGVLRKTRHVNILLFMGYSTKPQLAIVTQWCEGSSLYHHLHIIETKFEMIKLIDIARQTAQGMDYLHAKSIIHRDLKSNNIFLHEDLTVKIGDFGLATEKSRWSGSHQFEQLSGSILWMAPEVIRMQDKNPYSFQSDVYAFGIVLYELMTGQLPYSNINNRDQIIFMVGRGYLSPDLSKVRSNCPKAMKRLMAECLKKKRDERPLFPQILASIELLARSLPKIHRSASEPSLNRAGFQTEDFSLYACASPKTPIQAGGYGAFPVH
Sequence of BCRP (Q9UNQ0 whole entry): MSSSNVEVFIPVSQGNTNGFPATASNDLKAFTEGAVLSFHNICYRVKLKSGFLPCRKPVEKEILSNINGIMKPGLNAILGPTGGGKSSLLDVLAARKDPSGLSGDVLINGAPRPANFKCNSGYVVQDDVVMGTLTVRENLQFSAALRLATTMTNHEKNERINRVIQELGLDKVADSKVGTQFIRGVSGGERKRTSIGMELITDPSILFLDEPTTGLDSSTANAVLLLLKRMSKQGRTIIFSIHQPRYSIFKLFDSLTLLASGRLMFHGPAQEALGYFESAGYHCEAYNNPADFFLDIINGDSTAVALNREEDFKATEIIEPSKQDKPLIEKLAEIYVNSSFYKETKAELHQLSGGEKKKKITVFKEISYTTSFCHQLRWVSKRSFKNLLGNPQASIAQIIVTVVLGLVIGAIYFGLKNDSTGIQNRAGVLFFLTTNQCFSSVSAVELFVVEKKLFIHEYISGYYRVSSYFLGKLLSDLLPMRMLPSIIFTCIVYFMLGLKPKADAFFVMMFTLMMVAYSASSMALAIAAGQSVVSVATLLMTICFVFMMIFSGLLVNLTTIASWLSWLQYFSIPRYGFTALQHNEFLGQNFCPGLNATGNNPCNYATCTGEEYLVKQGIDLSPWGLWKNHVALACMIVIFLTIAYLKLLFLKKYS

pIC50 [1, 7]	pIC50 [2]	pIC50 [3]	Papp at 2 h, 1 µM [4] [×10⁻⁶ cm/s]	pIC50 [1]	efflux ratio at 2 h, 1 µM [5]	Structure (SMILES)	efflux ratio at 2 h, 1 µM [6]
8.22	7.33	6.53				CO[C@H]1CN(S(=O)(=O)Nc2cc(F)c(F)c(Nc3ccc4ncn(C)c(=O)c4c3C)c2Cl)C[C@H]1F (relative stereo) [Example 100, cis-N-(2-chloro-3-((3,5-dimethyl-4-oxo-3,4-dihydroquinazolin-6-yl)amino)-4,5-difluorophenyl)-3-fluoro-4-methoxypyrrolidine-1-sulfonamide]	
7.11	7.24	6.56				C=Cc1c(Nc2c(F)ccc(NS(=O)(=O)N3CCCC3)c2Cl)ccc2ncn(C)c(=O)c12 [Example 51, N-(2-chloro-4-fluoro-3-((3-methyl-4-oxo-5-vinyl-3,4-dihydroquinazolin-6-yl)amino)phenyl)pyrrolidine-1-sulfonamide trifluoroacetate]	
6.85	6.91	6.07				CCc1c(Nc2c(F)ccc(NS(=O)(=O)N3CCCC3)c2Cl)ccc2ncn(C)c(=O)c12 [Example 52, N-(2-chloro-3-((5-ethyl-3-methyl-4-oxo-3,4-dihydroquinazolin-6-yl)amino)-4-fluorophenyl)pyrrolidine-1-sulfonamide trifluoroacetate]	
	8.15	7.19	34	8.70	4.5	Cn1cnc2ccc(Oc3c(F)ccc(NS(=O)(=O)N4C[C@@H](F)[C@@H](F)C4)c3Cl)c(F)c2c1=O [Example 64, cis-N-(2-chloro-4-fluoro-3-((5-fluoro-3-methyl-4-oxo-3,4-dihydroquinazolin-6-yl)oxy)phenyl)-3,4-difluoropyrrolidine-1-sulfonamide]	
8.52	7.43	6.36				Cc1c(Nc2c(F)c(F)cc(NS(=O)(=O)N3CC4CC3C4)c2Cl)ccc2ncn(C)c(=O)c12 [Example 101, N-(2-chloro-3-((3,5-dimethyl-4-oxo-3,4-dihydroquinazolin-6-yl)amino)-4,5-difluorophenyl)-2-azabicyclo[2.1.1]hexane-2-sulfonamide]	
9.00	7.14	6.15				Cc1c(Nc2c(F)c(F)cc(NS(=O)(=O)N3CC4CC4C3)c2Cl)ccc2ncn(C)c(=O)c12 (stereo not drawn) [Example 102, N-(2-chloro-3-((3,5-dimethyl-4-oxo-3,4-dihydroquinazolin-6-yl)amino)-4,5-difluorophenyl)-3-azabicyclo[3.1.0]hexane-3-sulfonamide]	
7.82	6.83	6.57				CO[C@@H]1CCN(S(=O)(=O)Nc2cc(Cl)cc(Nc3ccc4ncn(C)c(=O)c4c3C)c2F)C1 [Example 105, (R)-N-(5-chloro-3-((3,5-dimethyl-4-oxo-3,4-dihydroquinazolin-6-yl)amino)-2-fluorophenyl)-3-methoxypyrrolidine-1-sulfonamide]	
8.40	8.22	7.39	34		3.5	COCC1CN(S(=O)(=O)Nc2ccc(F)c(Oc3ccc4ncn(C)c(=O)c4c3Cl)c2Cl)C1 [Example 118, N-(2-chloro-3-((5-chloro-3-methyl-4-oxo-3,4-dihydroquinazolin-6-yl)oxy)-4-fluorophenyl)-3-(methoxymethyl)azetidine-1-sulfonamide]	
8.22	8.10	7.29	32		3.8	COC1CN(S(=O)(=O)Nc2ccc(F)c(Oc3ccc4ncn(C)c(=O)c4c3Cl)c2Cl)C1 [Example 119, N-(2-chloro-3-((5-chloro-3-methyl-4-oxo-3,4-dihydroquinazolin-6-yl)oxy)-4-fluorophenyl)-3-methoxyazetidine-1-sulfonamide]	
8.22	7.60		29		2.6	COCC1(F)CN(S(=O)(=O)Nc2ccc(F)c(Nc3ccc4ncn(C)c(=O)c4c3C)c2Cl)C1 [Example 145, N-(2-chloro-3-((3,5-dimethyl-4-oxo-3,4-dihydroquinazolin-6-yl)amino)-4-fluorophenyl)-3-fluoro-3-(methoxymethyl)azetidine-1-sulfonamide trifluoroacetate]	2.4
7.48	7.06		38		1.3	CCOC1CN(S(=O)(=O)Nc2ccc(F)c(Nc3ccc4ncn(C)c(=O)c4c3C)c2Cl)C1 [Example 160, N-(2-chloro-3-((3,5-dimethyl-4-oxo-3,4-dihydroquinazolin-6-yl)amino)-4-fluorophenyl)-3-ethoxyazetidine-1-sulfonamide]	1.3
7.62	6.61		27		1.9	Cc1c(Nc2c(F)ccc(NS(=O)(=O)N3CC(OC(F)F)C3)c2Cl)ccc2ncn(C)c(=O)c12 [Example 161, N-(2-chloro-3-((3,5-dimethyl-4-oxo-3,4-dihydroquinazolin-6-yl)amino)-4-fluorophenyl)-3-(difluoromethoxy)azetidine-1-sulfonamide]	2.6

Structure (SMILES)	pIC50 [1, 7]	pIC50 [2]	pIC50 [3]	Papp at 2 h, 1 µM [4] [×10⁻⁶ cm/s]	pIC50 [1]	efflux ratio at 2 h, 1 µM [5]	efflux ratio at 2 h, 1 µM [6]
Cn1cnc2ccc(Nc3c(F)ccc(NS(=O)(=O)N4CC5(CCC5)C4)c3Cl)c(Cl)c2c1=O [Example 158, N-(2-chloro-3-((5-chloro-3-methyl-4-oxo-3,4-dihydroquinazolin-6-yl)amino)-4-fluorophenyl)-2-azaspiro[3.3]heptane-2-sulfonamide trifluoroacetate]	8.10	6.81		26		1.5	1.1
Cn1cnc2ccc(Nc3c(F)ccc(NS(=O)(=O)N4CC5(CCC5)C4)c3Cl)c(F)c2c1=O [Example 159, N-(2-chloro-4-fluoro-3-((5-fluoro-3-methyl-4-oxo-3,4-dihydroquinazolin-6-yl)amino)phenyl)-2-azaspiro[3.3]heptane-2-sulfonamide trifluoroacetate]	8.10	7.05		33		1.8	1.1
Cc1c(Nc2c(F)ccc(NS(=O)(=O)N3CC4(CC4)C3)c2Cl)ccc2ncn(C)c(=O)c12 [Example 163, N-(2-chloro-3-((3,5-dimethyl-4-oxo-3,4-dihydroquinazolin-6-yl)amino)-4-fluorophenyl)-5-azaspiro[2.3]hexane-5-sulfonamide trifluoroacetate]	8.10	6.75		23		1.9	1.4
